pIC50: −log10 of the molar value. Like-named read-outs stand apart in the source and are kept apart here.
Key:
[1] = system: A549 cells; assay: MTT cytotoxicity in A549 cells; format: cell-based; conditions: Homo sapiens
Method: (§1) As the anti-neuroinflammatory agents for cancer patients, all newly synthesized compounds were evaluated in vitro for antitumor activity against human breast cancer cell line MDA-MB-231, colorectal cancer cells HT-29 and HCT-116, and lung cancer cell line A549 by using the standard MTT method, respectively. Doxorubicin (DOX) and DHA were used as the reference standard. Additionally, owing to the rapid proliferation, the tumor cells actually was always in hypoxia condition. Therefore, the in vitro cytotoxicity was evaluated in two different conditions (hypoxia and normoxia).
(§2) After recovery, the cells were cultured in 96-well plates for 24 h at 37 °C in a humidified atmosphere with 95% air and 5% CO2. After treated with different tested compounds, the hypoxia groups were placed in a sealed hypoxia incubator chamber (Stemcell Technologies, Inc., Vancouver, BC, Canada) filled with 5% CO2 and 95% N2 for 24 h, and then transferred to the incubator chamber filled with air for 72 h. On the contrary, the normoxia groups were cultured under air condition for 96h.
(§3) Cancer cells HT-29 (Human Colorectal Adenocarcinoma cell line), MDA-MB-231 (Human Breast Cancer cell line), HCT-116 (Human Colorectal Carcinoma cell line), and A549 (Human Lung Adenocarcinomic cell line) were from ATCC.
(§4) When the adherent cells reached 80% confluence, the culture medium was discarded. The cells were digested by trypsin and collected after centrifugation. The fresh culture medium was gently blown into it to form single-cell suspension. Cell suspension will be diluted to 1.5–3 × 10^4 cells/mL. Each hole of 96-well plates was added 100 μL cell suspension and incubated for 24 h (5% CO2; 37 °C). Then the holes were added different concentrations of tested compounds. The early screening concentration is set to 100 μM, 50 μM, 25 μM, 12.5 μM, and 6.25 μM. Three replicates were made for each concentration of the tested compounds. After the cells were grown for 96h, 20 μL MTT (5 mg/mL) was added to each well and incubated for 4 h. The medium was discarded and each well was added 100 μL DMSO to dissolve the formazan blue. Absorbance was measured at 570 nm with a microplate reader (Synergy-HT, BioTek Instruments, Winooski, VT, USA).
(§5) Hypoxia condition: The cells were treated with different concentration of tested compounds, placed in hypoxia chamber (Catalog Number 27310, Stemcell Technologies, Inc., Vancouver, BC, Canada), and incubated for 24 h ([…]; 37 °C). Then the cells were placed in normoxia condition (5% CO2; 37 °C) and incubated for 72 h.

[2] = system: NO release of LPS-induced microglial N9 cells; assay: Inhibition of NO release in LPS-induced N9 cells (Griess); format: cell-based, murine; conditions: Mus musculus, 1 μg/mL LPS for 48 h, NO level in medium
Method: (§6) The anti-neuroinflammatory activity of DCH was evaluated and then the representative compounds were selected for the further study. […] In addition, in order to exclude the death influence, MTT-IC20 of all the compounds were measured. […] The exact reason was still unclear, but we supposed that it might be related to the homeostasis of cells. The tumor cells actually were always in hypoxia condition, in which DCH could promote the cytotoxic activity against tumor cells. In brief, DCH could reduce the release of NO caused by LPS-induced microglial cells.
(§7) N9 cells, which were in the logarithmic phase, were incubated for 24 h by adherent culture. Subsequently, the medium was changed to new one without serum. The cells were treated with different concentration of tested compounds. After specific time in the LPS condition, the supernatants were collected and analyzed.
The nitrite levels in medium were determined by Griess reaction. The absorbance was measured at 540 nm using a microplate reader.

[3] = system: HT-29 cells; assay: MTT cytotoxicity in HT-29 cells; format: cell-based, Human; conditions: Homo sapiens, MTT
Method: as §1
as §2, with “On the contrary, the normoxia groups were cultured under air condition for 96h.” left out
as §3
as §4, with “After the cells were grown for 96h, 20 μL MTT (5 mg/mL) was added to each well and incubated for 4 h.” left out, “USA). […]” for “USA).”

[4] = system: HCT-116 cells; assay: MTT cytotoxicity in HCT-116 cells; format: cell-based; conditions: Homo sapiens
Method: as §1, §2, §3, §4, §5

[5] = system: MDA-MB-231 cells; assay: MTT cytotoxicity in MDA-MB-231 cells; format: cell-based; conditions: Homo sapiens
Method: as §1, §2, §3, §4, §5

[6] = MTT cytotoxicity in N9 cells; format: cell-based, murine; conditions: mouse, N9 microglial cells, cytotoxic activity
Method: as §6, §4, §7

[7] = A549, hypoxia 24 h then normoxia 72 h, read-out: IC50 A549 Hypoxia
[8] = A549, normoxia 96 h, read-out: IC50 A549 Normoxia
[9] = HT-29, hypoxia 24 h then normoxia 72 h, read-out: IC50 HT-29 Hypoxia
[10] = HT-29, normoxia 96 h, read-out: IC50 HT-29 Normoxia
[11] = HCT-116, hypoxia 24 h then normoxia 72 h, read-out: IC50 HCT-116 Hypoxia
[12] = HCT-116, normoxia 96 h, read-out: IC50 HCT-116 Normoxia
[13] = MDA-MB-231, hypoxia 24 h then normoxia 72 h, read-out: IC50 MDA-MB-231 Hypoxia
[14] = MDA-MB-231, normoxia 96 h, read-out: IC50 MDA-MB-231 Normoxia

| Compound | pIC50 [2] | melting point [°C] | pIC50 [1, 7] | pIC50 [1, 8] | pIC50 [3, 9] | pIC50 [3, 10] | pIC50 [4, 11] | pIC50 [4, 12] | pIC50 [5, 13] | pIC50 [5, 14] | IC20 [6] [µM] |
| --- | --- | --- | --- | --- | --- | --- | --- | --- | --- | --- | --- |
| C[C@H]1[C@@H](OCc2cn(Cc3cc4cc(Cl)ccc4oc3=O)nn2)O[C@@H]2O[C@@]3(C)CC[C@H]4[C@H](C)CC[C@@H]1[C@@]24OO3 [1c, 6-chloro-3-((4-((10S)-dihydroartemisininoxy)methyl-1H-1,2,3-triazol-1-yl)-methyl)-2H-1-chromen-2-one] | 5.27 | 93 to 95 | 4.31 | 4.13 | 4.58 | 4.45 | 4.39 | 4.22 | 4.49 | < 4.00 | > 10 |
| C[C@H]1[C@@H](OCc2cn(Cc3cc4cc(Br)cc(Br)c4oc3=O)nn2)O[C@@H]2O[C@@]3(C)CC[C@H]4[C@H](C)CC[C@@H]1[C@@]24OO3 [1e, 6,8-dibromo-3-((4-((10S)-dihydroartemisininoxy)methyl-1H-1,2,3-triazol-1-yl)-methyl)-2H-1-chromen-2-one] | 6.32 | 103 to 105 | 4.22 | < 4.00 | 4.57 | 4.81 | < 4.00 | 4.26 | 4.34 | 4.11 | > 10 |
| C[C@H]1[C@@H](OCc2cn(Cc3cc4ccccc4oc3=O)nn2)O[C@@H]2O[C@@]3(C)CC[C@H]4[C@H](C)CC[C@@H]1[C@@]24OO3 [1a, 3-((4-((10S)-dihydroartemisininoxy)methyl-1H-1,2,3-triazol-1-yl)-methyl)-2H-1-chromen-2-one] | 5.84 | 73 to 75 | 4.27 | 4.08 | 4.84 | 4.74 | 4.30 | 4.31 | 4.52 | 4.19 | > 10 |
| C[C@H]1[C@@H](OCc2cn(Cc3cc4cc(Cl)cc(Cl)c4oc3=O)nn2)O[C@@H]2O[C@@]3(C)CC[C@H]4[C@H](C)CC[C@@H]1[C@@]24OO3 [1d, 6,8-dichloro-3-((4-((10S)-dihydroartemisininoxy)methyl-1H-1,2,3-triazol-1-yl)-methyl)-2H-1-chromen-2-one] | 5.80 | 113 to 115 | 4.34 | 4.27 | 4.87 | 4.83 | 4.31 | 4.22 | 4.47 | 4.16 | > 10 |

Further lines, with some results ahead:

| pIC50 [2] | melting point [°C] | Compound | pIC50 [1, 7] | pIC50 [1, 8] | pIC50 [3, 9] | pIC50 [3, 10] | pIC50 [4, 11] | pIC50 [4, 12] | pIC50 [5, 13] | pIC50 [5, 14] | IC20 [6] [µM] |
| --- | --- | --- | --- | --- | --- | --- | --- | --- | --- | --- | --- |
| 5.72 | 80 to 82 | Cc1ccc2c(OCc3cn(CCCO[C@H]4O[C@@H]5O[C@@]6(C)CC[C@H]7[C@H](C)CC[C@@H]([C@H]4C)[C@@]57OO6)nn3)cc(=O)oc2c1 [6k] | 5.02 | 4.83 | 5.27 | 5.16 | 4.47 | 4.55 | 4.84 | 4.41 | > 10 |
| 6.54 | 74 to 76 | C[C@H]1[C@@H](OCCCn2cc(COc3cc(=O)oc4ccccc34)nn2)O[C@@H]2O[C@@]3(C)CC[C@H]4[C@H](C)CC[C@@H]1[C@@]24OO3 [6j] | 4.31 | 4.27 | 5.13 | 4.98 | 4.48 | 4.59 | 4.48 | 4.17 | > 10 |
| 6.03 | 93 to 95 | C[C@H]1[C@@H](OCCc2cn(Cc3cc4cc(Br)cc(Br)c4oc3=O)nn2)O[C@@H]2O[C@@]3(C)CC[C@H]4[C@H](C)CC[C@@H]1[C@@]24OO3 [2e, 6,8-dibromo-3-((4-(2-((10S)-dihydroartemisininoxy)ethyl)-1H-1,2,3-triazol-1-yl)-methyl)-2H-1-chromen-2-one] | 4.10 | < 4.00 | 4.86 | 4.41 | 4.06 | 4.03 | 4.36 | < 4.00 | > 10 |
| 5.84 | 143 to 145 | Cc1cccc2c(OCc3cn(CCCO[C@H]4O[C@@H]5O[C@@]6(C)CC[C@H]7[C@H](C)CC[C@@H]([C@H]4C)[C@@]57OO6)nn3)cc(=O)oc12 [6o] | 4.40 | 4.11 | 4.54 | 4.09 | 4.37 | 4.92 | 4.73 | 4.32 | > 10 |
| 5.95 | 115 to 117 | Cc1ccc2c(OCc3cn(CCCO[C@H]4O[C@@H]5O[C@@]6(C)CC[C@H]7[C@H](C)CC[C@@H]([C@H]4C)[C@@]57OO6)nn3)cc(=O)oc2c1C [6n] | 7.41 | 4.52 | 5.38 | 5.04 | 4.47 | 4.65 | 4.96 | 4.87 | 6.53 |
| 6.01 | 143 to 145 | C[C@H]1[C@@H](OCCc2cn(Cc3cc4ccccc4oc3=O)nn2)O[C@@H]2O[C@@]3(C)CC[C@H]4[C@H](C)CC[C@@H]1[C@@]24OO3 [2a, 3-((4-(2-((10S)-dihydroartemisininoxy)ethyl)-1H-1,2,3-triazol-1-yl)-methyl)-2H-1-chromen-2-one] | < 4.00 | < 4.00 | 4.71 | < 4.00 | < 4.00 | < 4.00 | < 4.00 | < 4.00 | > 10 |
| 5.87 | 101 to 103 | C[C@H]1[C@@H](OCCc2cn(Cc3cc4cc(Cl)cc(Cl)c4oc3=O)nn2)O[C@@H]2O[C@@]3(C)CC[C@H]4[C@H](C)CC[C@@H]1[C@@]24OO3 [2d, 6,8-dichloro-3-((4-(2-((10S)-dihydroartemisininoxy)ethyl)-1H-1,2,3-triazol-1-yl)-methyl)-2H-1-chromen-2-one] | 4.16 | 4.02 | 4.51 | 4.71 | 4.33 | 4.27 | 4.32 | 4.05 | > 10 |

Reference: PMC6539525, “Design, Synthesis, and Mechanism of Dihydroartemisinin–Coumarin Hybrids as Potential Anti-Neuroinflammatory Agents” (Molecules, 2019)
